Key:
Format in all cases: cell-based
[1] = tested on: Primary human epidermal keratinocytes, HeKa; assay: HeKa cytokine release (IL-8); details: Homo sapiens, HEKa, 6 h, read-out: HeKa cytokine release (IL-8) Rel EC50 range
Protocol: Primary human epidermal keratinocytes, HeKa, were seeded (10.000 cells/well) in 96-well plates the day before the assay. Test compounds were diluted in DMSO (dimethyl sulfoxide) and further diluted in assay medium and pipetted into wells of 96 well-plates containing HeKa cells. The plates were incubated for 6 h at 37° C. in humidified air with 5% CO2. Plates were centrifuged briefly to spin down cells at 4° C., the supernatant was removed and analysed by Meso Scale Discovery (MSD) 4-spot cytokine assay (Pro-inflammatory II Ultra Sensitive kit, MSD, MD, USA). The MSD assay employs a sandwich immunoassay format where capture antibodies are coated in a patterned array on the bottom of the wells of a 4-Spot-Multi-MSD plate. Standard samples were incubated in the MULTI-SPOT plates as well, and the cytokine (IL-8) binds to its corresponding capture antibody spot. The cytokine level was quantitated on a SECTOR™ Imager using a cytokine-specific Detection Antibody labelled with MSD SULFO-TAG™ reagent.
Test compound titration curves were fitted to a four-parameter sigmoidal curve after normalizing the effect of the test compound to the effect of the positive control (1.5×10^−7 M PEP0005). Rel EC50 denotes the concentration of test compound producing an effect that is midway between the fitted top and bottom.

[2] = tested on: PMN's (polymorphonuclear leukocytes); assay: Neutrophil oxidative burst; details: Leukocyte, 40 min, read-out: Neutrophil oxidative burst Rel EC50 range, PMN from buffy coats, 40 min at RT, hydroethidine fluorescence; normalized to 5×10^−7 M PEP0005
Summary of the method: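 Human buffy-coat neutrophils (2.5×10^5/well) in HBSS with 0.1% BSA, 5 mM glucose treated with compound premixed with 10 μM hydroethidine for 40 min at RT; fluorescence read at 485/579 nm. Normalized to 5×10^−7 M PEP0005; Rel EC50 is midway between fitted top and bottom, Abs EC50 gives 50% of PEP0005 maximum.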

HeLa cells = assay: Necrosis assay; details: Homo sapiens, HeLa, 0.5 h, read-out: HeLa necrosis EC50 range
Summary of the method: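 HeLa cells treated with compound at 10 μM to 400 μM (final) for 30 min at 37° C., viability then measured by PrestoBlue fluorescence (ex 535/em 630 nm). Normalized to 1% DMSO and 400 μM ingenol mebutate controls; AbsEC50 from four-parameter sigmoidal fit.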

| SMILES | EC50 [1] [nM] | EC50 [2] [nM] | EC50 (HeLa cells) [nM] |
| --- | --- | --- | --- |
| CC1=C[C@]23C(=O)[C@@H](C=C(CO)[C@@H](O)[C@]2(O)[C@H]1OC(=O)c1cccc2cc[nH]c12)[C@H]1[C@@H](C[C@H]3C)C1(C)C [Compound 531, Ingenol 3-(1H-indole-7-carboxylate)] | < 20 | 20 to 100 | < 150000 |
| CC1=C[C@]23C(=O)[C@@H](C=C(CO)[C@@H](O)[C@]2(O)[C@H]1OC(=O)c1cc(C)nn1C(C)(C)C)[C@H]1[C@@H](C[C@H]3C)C1(C)C [Compound 532, Ingenol 3-(2-tert-butyl-5-methyl-pyrazole-3-carboxylate)] | < 20 | 20 to 100 | < 150000 |
| CC1=C[C@]23C(=O)[C@@H](C=C(CO)[C@@H](O)[C@]2(O)[C@H]1OC(=O)c1cc(C(C)(C)C)nn1C)[C@H]1[C@@H](C[C@H]3C)C1(C)C [Compound 533, Ingenol 3-(5-tert-butyl-2-methyl-pyrazole-3-carboxylate)] | < 20 | < 20 | < 150000 |
| CC1=C[C@]23C(=O)[C@@H](C=C(CO)[C@@H](O)[C@]2(O)[C@H]1OC(=O)c1c(C)nc2sccn12)[C@H]1[C@@H](C[C@H]3C)C1(C)C [Compound 534, Ingenol 3-(6-methylimidazo[2,1-b]thiazole-5-carboxylate)] | < 20 | < 20 | 150000 to 350000 |
| CC1=C[C@]23C(=O)[C@@H](C=C(CO)[C@@H](O)[C@]2(O)[C@H]1OC(=O)c1c(C)oc(C)c1C)[C@H]1[C@@H](C[C@H]3C)C1(C)C [Compound 536, Ingenol 3-(2,4,5-trimethylfuran-3-carboxylate)] | < 20 | < 20 | 150000 to 350000 |
| CC1=C[C@]23C(=O)[C@@H](C=C(CO)[C@@H](O)[C@]2(O)[C@H]1OC(=O)c1sccc1C)[C@H]1[C@@H](C[C@H]3C)C1(C)C [Compound 537, Ingenol 3-(3-methylthiophene-2-carboxylate)] | < 20 | < 20 | 150000 to 350000 |
| CC1=C[C@]23C(=O)[C@@H](C=C(CO)[C@@H](O)[C@]2(O)[C@H]1OC(=O)c1c(N2CCCCC2)cnn1C)[C@H]1[C@@H](C[C@H]3C)C1(C)C [Compound 538, Ingenol 3-(2-methyl-4-(1-piperidyl)pyrazole-3-carboxylate)] | 20 to 100 | < 20 | 150000 to 350000 |
| CC1=C[C@]23C(=O)[C@@H](C=C(CO)[C@@H](O)[C@]2(O)[C@H]1OC(=O)c1nc(Cl)sc1C(C)C)[C@H]1[C@@H](C[C@H]3C)C1(C)C [Compound 539, Ingenol 3-(2-chloro-5-isopropyl-thiazole-4-carboxylate)] | < 20 | 20 to 100 | < 150000 |
| CC1=C[C@]23C(=O)[C@@H](C=C(CO)[C@@H](O)[C@]2(O)[C@H]1OC(=O)c1c(Cl)c(C)nn1C)[C@H]1[C@@H](C[C@H]3C)C1(C)C [Compound 540, Ingenol 3-(4-chloro-2,5-dimethyl-pyrazole-3-carboxylate)] | < 20 | < 20 | < 150000 |
| CC1=C[C@]23C(=O)[C@@H](C=C(CO)[C@@H](O)[C@]2(O)[C@H]1OC(=O)c1c(C)cn(C)c1C)[C@H]1[C@@H](C[C@H]3C)C1(C)C [Compound 541, Ingenol 3-(1,2,4-trimethylpyrrole-3-carboxylate)] | < 20 | < 20 | 150000 to 350000 |
| CC1=C[C@]23C(=O)[C@@H](C=C(CO)[C@@H](O)[C@]2(O)[C@H]1OC(=O)c1c(C)cc(C)n1C)[C@H]1[C@@H](C[C@H]3C)C1(C)C [Compound 542, Ingenol 3-(1,3,5-trimethylpyrrole-2-carboxylate)] | < 20 | < 20 | < 150000 |
| CC1=C[C@]23C(=O)[C@@H](C=C(CO)[C@@H](O)[C@]2(O)[C@H]1OC(=O)C1N(C(=O)OC(C)(C)C)CCC1(C)C)[C@H]1[C@@H](C[C@H]3C)C1(C)C (stereo partly drawn) [Compound 544, Ingenol 3-(1-tert-butyloxycarbonyl-3,3-dimethylpyrrolidine-2-carboxylate)] | > 100 | > 100 | 150000 to 350000 |
| CC1=C[C@]23C(=O)[C@@H](C=C(CO)[C@@H](O)[C@]2(O)[C@H]1OC(=O)c1c(C)nn(C(C)C)c1C)[C@H]1[C@@H](C[C@H]3C)C1(C)C [Compound 546, Ingenol 3-(1-isopropyl-3,5-dimethyl-pyrazole-4-carboxylate)] | < 20 | < 20 | 150000 to 350000 |
| CCc1onc(C(C)C)c1C(=O)O[C@H]1C(C)=C[C@]23C(=O)[C@@H](C=C(CO)[C@@H](O)[C@]12O)[C@H]1[C@@H](C[C@H]3C)C1(C)C [Compound 547, Ingenol 3-(5-ethyl-3-isopropyl-isoxazole-4-carboxylate)] | < 20 | 20 to 100 | < 150000 |
| CC1=C[C@]23C(=O)[C@@H](C=C(CO)[C@@H](O)[C@]2(O)[C@H]1OC(=O)c1c2ccccc2nn1C)[C@H]1[C@@H](C[C@H]3C)C1(C)C [Compound 548, Ingenol 3-(2-methylindazole-3-carboxylate)] | < 20 | 20 to 100 | 150000 to 350000 |
| CC1=C[C@]23C(=O)[C@@H](C=C(CO)[C@@H](O)[C@]2(O)[C@H]1OC(=O)C1=C(C)C(=O)OC12CCCCC2)[C@H]1[C@@H](C[C@H]3C)C1(C)C [Compound 550, Ingenol 3-(2-methyl-3-oxo-4-oxaspiro[4.5]dec-1-ene-1-carboxylate)] | < 20 | < 20 | < 150000 |
| CC1=C[C@]23C(=O)[C@@H](C=C(CO)[C@@H](O)[C@]2(O)[C@H]1OC(=O)c1c(C)nsc1C)[C@H]1[C@@H](C[C@H]3C)C1(C)C [Compound 552, Ingenol 3-(3,5-dimethylisothiazole-4-carboxylate)] | 20 to 100 | 20 to 100 | 150000 to 350000 |
| CC1=C[C@]23C(=O)[C@@H](C=C(CO)[C@@H](O)[C@]2(O)[C@H]1OC(=O)c1c(C)nsc1I)[C@H]1[C@@H](C[C@H]3C)C1(C)C [Compound 553, Ingenol 3-(5-iodo-3-methyl-isothiazole-4-carboxylate)] | < 20 | < 20 | 150000 to 350000 |
| COc1ccc(-c2cnn(C)c2C(=O)O[C@H]2C(C)=C[C@]34C(=O)[C@@H](C=C(CO)[C@@H](O)[C@]23O)[C@H]2[C@@H](C[C@H]4C)C2(C)C)cc1 [Compound 554, Ingenol 3-(4-(4-methoxyphenyl)-2-methyl-pyrazole-3-carboxylate)] | < 20 | < 20 | < 150000 |
| CC1=C[C@]23C(=O)[C@@H](C=C(CO)[C@@H](O)[C@]2(O)[C@H]1OC(=O)c1c(-c2ccccc2C)cnn1C)[C@H]1[C@@H](C[C@H]3C)C1(C)C [Compound 555, Ingenol 3-(4-(2-methylphenyl)-2-methyl-pyrazole-3-carboxylate)] | < 20 | < 20 | < 150000 |
| CC1=C[C@]23C(=O)[C@@H](C=C(CO)[C@@H](O)[C@]2(O)[C@H]1OC(=O)c1c(-c2ccc(S(C)(=O)=O)cc2)cnn1C)[C@H]1[C@@H](C[C@H]3C)C1(C)C [Compound 556, Ingenol 3-(2-methyl-4-(4-methylsulfonylphenyl)pyrazole-3-carboxylate)] | 20 to 100 | 20 to 100 | 150000 to 350000 |
| CC1=C[C@]23C(=O)[C@@H](C=C(CO)[C@@H](O)[C@]2(O)[C@H]1OC(=O)c1c(-c2ccccc2)cnn1C)[C@H]1[C@@H](C[C@H]3C)C1(C)C [Compound 557, Ingenol 3-(2-methyl-4-phenyl-pyrazole-3-carboxylate)] | < 20 | < 20 | < 150000 |
| CC1=C[C@]23C(=O)[C@@H](C=C(CO)[C@@H](O)[C@]2(O)[C@H]1OC(=O)c1c(C)nn(-c2ccccc2)c1C)[C@H]1[C@@H](C[C@H]3C)C1(C)C [Compound 558, Ingenol 3-(3,5-dimethyl-1-phenyl-pyrazole-4-carboxylate)] | < 20 | < 20 | < 150000 |
| CC1=C[C@]23C(=O)[C@@H](C=C(CO)[C@@H](O)[C@]2(O)[C@H]1OC(=O)c1c(-c2ccccc2)nn(C)c1C)[C@H]1[C@@H](C[C@H]3C)C1(C)C [Compound 559, Ingenol 3-(1,5-dimethyl-3-phenyl-pyrazole-4-carboxylate)] | < 20 | < 20 | 150000 to 350000 |
